The values that follow come from patent publication US20140343048A1, “6-DIFLUOROMETHYL-5,6-DIHYDRO-2H-[1,4]OXAZIN-3-AMINE DERIVATIVES” (Janssen Pharmacetuica NV, priority 2011, published 2014).

Data set [1] concerns Abeta total produced and secreted by human neuroblastoma SKNBE2 cells expressing hAPP695. Briefly: Cellular αLisa assay in SKNBE2 cells, Abeta total. It counts as cell-based. The settings on record: incubated for 18 hours, read-out: Cellular αLisa assay in SKNBE2 cells Abetatotal pIC50 (converted). How it is done: (§1) In two αLisa assays the levels of Abeta total and Abeta 1-42 produced and secreted into the medium of human neuroblastoma SKNBE2 cells are quantified. The assay is based on the human neuroblastoma SKNBE2 expressing the wild type Amyloid Precursor Protein (hAPP695). The compounds are diluted and added to these cells, incubated for 18 hours and then measurements of Abeta 1-42 and Abeta total are taken. Abeta total and Abeta 1-42 are measured by sandwich αLisa. αLisa is a sandwich assay using biotinylated antibody AbN/25 attached to streptavidin coated beads and antibody Ab4G8 or cAb42/26 conjugated acceptor beads for the detection of Abeta total and Abeta 1-42 respectively. In the presence of Abeta total or Abeta 1-42, the beads come into close proximity. The excitation of the donor beads provokes the release of singlet oxygen molecules that trigger a cascade of energy transfer in the acceptor beads, resulting in light emission. Light emission is measured after 1 hour incubation (excitation at […] and emission at 615 nm).
(§2) A best-fit curve is fitted by a minimum sum of squares method to the plot of % Controlmin versus compound concentration. From this an IC50 value (inhibitory concentration causing 50% inhibition of activity) can be obtained.

For data set [2], the system named is Abeta 1-42 produced and secreted by human neuroblastoma SKNBE2 cells expressing hAPP695. In words: Cellular αLisa assay in SKNBE2 cells, Abeta 42. It counts as cell-based. The settings on record: incubated for 18 hours, read-out: Cellular αLisa assay in SKNBE2 cells Abeta 42 pIC50 (converted). The procedure: as §1, §2
The target of data set [3] is recombinant BACE1 protein (Homo sapiens, UniProt P56817). Briefly: Biochemical FRET based assay. The note with it: recombinant BACE1 1 μg/ml, 120 minutes, room temperature, pH 5.0; read-out: Biochemical FRET based assay pIC50 (converted). An excerpt: This assay is a Fluorescence Resonance Energy Transfer Assay (FRET) based assay. The substrate for this assay is an APP derived 13 amino acids peptide that contains the ‘Swedish’ Lys-Met/Asn-Leu mutation of the amyloid precursor protein (APP) beta-secretase cleavage site. This substrate also contains two fluorophores: (7-methoxycoumarin-4-yl) acetic acid (Mca) is a fluorescent donor with excitation wavelength at 320 nm and emission at 405 nm and 2,4-Dinitrophenyl (Dnp) is a proprietary quencher acceptor. […] Upon cleavage by BACE1, the fluorophore Mca is separated from the quenching group Dnp, restoring the full fluorescence yield of the donor. The increase in fluorescence is linearly related to the rate of proteolysis.
Chain of recombinant BACE1 protein (P56817 46-501): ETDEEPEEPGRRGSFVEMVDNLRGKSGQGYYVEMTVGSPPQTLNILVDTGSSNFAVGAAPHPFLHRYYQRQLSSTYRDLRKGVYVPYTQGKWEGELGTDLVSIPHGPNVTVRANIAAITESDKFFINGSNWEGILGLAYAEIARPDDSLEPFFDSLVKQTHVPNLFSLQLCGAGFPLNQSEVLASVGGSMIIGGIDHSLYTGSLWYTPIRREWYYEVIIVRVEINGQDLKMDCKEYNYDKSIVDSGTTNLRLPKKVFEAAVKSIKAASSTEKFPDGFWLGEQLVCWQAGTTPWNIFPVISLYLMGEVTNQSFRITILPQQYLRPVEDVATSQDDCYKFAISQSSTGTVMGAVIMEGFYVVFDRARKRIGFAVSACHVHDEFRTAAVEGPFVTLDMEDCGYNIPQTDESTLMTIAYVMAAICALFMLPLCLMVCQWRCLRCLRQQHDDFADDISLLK
Briefly in a 384-well format recombinant BACE1 protein in a final concentration of 1 μg/ml is incubated for 120 minutes at room temperature with 10 μm substrate in incubation buffer (40 mM Citrate buffer pH 5.0, 0.04% PEG, 4% DMSO) in the absence or presence of compound. Next the amount of proteolysis is directly measured by fluorescence measurement at T=0 and T=120 (excitation at 320 nm and emission at 405 nm). Results are expressed in RFU (Relative Fluorescence Units), as difference between T120 and T0.
From this an IC50 value (inhibitory concentration causing 50% inhibition of activity) can be obtained.

Data set [4] has as its system Aβtotal in the soluble fraction of brain homogenates. In words: In vivo efficacy: brain soluble Aβtotal lowering (ELISA). The arrangement: species or system mouse. The note with it: p.o., non-transgenic animals. An excerpt: (§3) To determine whether acute administration of an Aβ42 peptide lowering agent would reduce Aβ peptide levels in vivo, non-transgenic rodents, e.g. mice or rats were used. Animals treated with the Aβ peptide lowering agent were examined and compared to those untreated or treated with vehicle and brain levels of soluble Aβ42 and total Aβ were quantitated by standard techniques, for example, using ELISA. Treatment periods varied from hours (h) to days and were adjusted based on the results of the Aβ42 lowering once a time course of onset of effect could be established.
(§4) A typical protocol for measuring Aβ42 lowering in vivo is shown but it is only one of many variations that could be used to optimize the levels of detectable Aβ. For example, Aβ peptide lowering compounds were formulated in 20% hydroxypropyl β cyclodextrin. The Aβ peptide lowering agents were administered as a single oral dose (p.o.) or a single subcutaneous dose (s.c.) to overnight fasted animals. After a certain time, usually 2 or 4 h (as indicated in Table 7), the animals were sacrificed and A1342 levels were analysed.
(§5) Blood was collected by decapitation and exsanguinations in EDTA-treated collection tubes. […] The left hemisphere was stored at −18° C. for quantitative analysis of test compound levels. […]
(§6) Mouse brains from non-transgenic animals were resuspended in 8 volumes of 0.4% DEA (diethylamine)/50 mM NaCl containing protease inhibitors (Roche-11873580001 or 04693159001) per gram of tissue, e.g. for 0.158 g brain, add 1.264 ml of 0.4% DEA. […] Nine parts of supernatant were neutralized with 1 part 0.5 M Tris-HCl pH 6.8 and used to quantify Aβtotal and Aβ42.
To quantify the amount of Aβtotal and Aβ42 in the soluble fraction of the brain homogenates, Enzyme-Linked-Immunosorbent-Assays were used. […] Following this incubation and subsequent wash steps the ELISA for Aβ42 quantification was finished by addition of Quanta Blu fluorogenic peroxidase substrate according to the manufacturer's instructions (Pierce Corp., Rockford, Ill.). A reading was performed after 10 to 15 min (excitation 320 nm/emission 420 nm). […]
(In an ELISA, binding on a coated surface is turned into a signal by an enzyme label.)

The subject of data set [5] is Aβ42 in the soluble fraction of brain homogenates. Briefly: In vivo efficacy: brain soluble Aβ42 lowering (ELISA). The arrangement: species or system mouse. The note with it: p.o., non-transgenic animals.
From the text: as §3, §4, §5, §6
To quantify the amount of Aβtotal and Aβ42 in the soluble fraction of the brain homogenates, Enzyme-Linked-Immunosorbent-Assays were used. […] Following this incubation and subsequent wash steps the ELISA for Aβ42 quantification was finished by addition of Quanta Blu fluorogenic peroxidase substrate according to the manufacturer's instructions (Pierce Corp., Rockford, Ill.). A reading was performed after 10 to 15 min (excitation 320 nm/emission 420 nm).

[6] abbreviates: 10 mpk, 2 h after administration.
The mark [7] stands for this setting: 30 mpk, 4 h after administration.

For the compound `C[C@]1(c2cccc(-c3cncnc3)c2)N=C(N)COC1C(F)F` (single isomer, unassigned) [Compound 5, (5R,6R*)-6-(Difluoromethyl)-5-methyl-5-(3-pyrimidin-5-ylphenyl)-5,6-dihydro-2H-1,4-oxazin-3-amine], the values for the IC50 in data set [1], in data set [2] and in data set [3] were 0.117 µM, 0.117 µM and 0.457 µM, respectively.

`C[C@]1(c2cc(-c3cncnc3)ccc2F)N=C(N)COC1C(F)F` (single isomer, unassigned) [Compound 4, (5R,6R*)-6-(Difluoromethyl)-5-(2-fluoro-5-pyrimidin-5-ylphenyl)-5-methyl-5,6-dihydro-2H-1,4-oxazin-3-amine]: the values for the IC50 in data set [1], in data set [2] and in data set [3] were 0.129 µM, 0.129 µM and 0.427 µM, respectively.

Broadly, the melting point is the temperature, or range, at which the solid turns liquid. Turning to `C[C@]1(c2cc(NC(=O)c3ccc(F)cn3)ccc2F)N=C(N)COC1C(F)F` (single isomer, unassigned) [Compound 2, N-{3-[(2R*,3R)-5-Amino-2-(difluoromethyl)-3-methyl-3,6-dihydro-2H-1,4-oxazin-3-yl]-4-fluorophenyl}-5-fluoropyridine-2-carboxamide], the melting point is 205.7 °C. Moreover, in data set [1], the IC50 is 0.00851 µM. Further, the “Aβtotal (% Ctrl)_Mean” value in data set [4] (setting [6]) came out at 96 % Ctrl. The IC50 in data set [2] is 0.00851 µM. Besides, the IC50 in data set [3] was 0.0355 µM. Besides, in data set [5] (setting [6]), the “Aβ42 (% Ctrl)_Mean” value stood at 91 % Ctrl.

Regarding `C[C@]1(c2cc(NC(=O)c3ccc(C#N)cn3)ccc2F)N=C(N)COC1C(F)F` (single isomer, unassigned) [Compound 7, N-{3-[(2R*,3R)-5-Amino-2-(difluoromethyl)-3-methyl-3,6-dihydro-2H-1,4-oxazin-3-yl]-4-fluorophenyl}-5-cyanopyridine-2-carboxamide], the melting point was found to be 230.9 °C. Further, the IC50 in data set [1] was 0.00309 µM. Further, the “Aβtotal (% Ctrl)_Mean” value in data set [4] (setting [7]) stood at 55 % Ctrl. Besides, the IC50 in data set [2] was 0.00347 µM. Also, the IC50 in data set [3] was 0.0537 µM. The “Aβ42 (% Ctrl)_Mean” value in data set [5] (setting [7]) worked out at 53 % Ctrl.

Regarding `CCC1(c2cc(NC(=O)c3cnc(OC)cn3)ccc2F)N=C(N)COC1C(F)F` (racemic) [Compound 3, cis-rac-N-{3-[5-Amino-2-(difluoromethyl)-3-ethyl-3,6-dihydro-2H-1,4-oxazin-3-yl]-4-fluorophenyl}-5-methoxypyrazine-2-carboxamide], the IC50 in data set [1] is 0.00372 µM; in data set [2] it was 0.00417 µM; in data set [3] it was 0.0631 µM.

`COc1cnc(C(=O)Nc2ccc(F)c([C@@]3(C)N=C(N)COC3C(F)F)c2)cn1` (single isomer, unassigned) [Compound 1, N-{3-[(2R*,3R)-5-Amino-2-(difluoromethyl)-3-methyl-3,6-dihydro-2H-1,4-oxazin-3-yl]-4-fluorophenyl}-5-methoxypyrazine-2-carboxamide]: the IC50 in data set [1] is 0.00427 µM; in data set [2] it was 0.00417 µM; in data set [3], 0.0355 µM. Besides, the “Aβtotal (% Ctrl)_Mean” value in data set [4] (setting [6]) came out at 59 % Ctrl. Further, in data set [5] (setting [6]), the “Aβ42 (% Ctrl)_Mean” value came out at 62 % Ctrl.

For the compound `CC1(c2cc(NC(=O)c3ccc(Cl)cn3)ccc2F)N=C(N)COC1C(F)F` (single isomer, unassigned) [Compound 6, N-{3-[(2R*3R)-5-Amino-2-(difluoromethyl)-3-methyl-3,6-dihydro-2H-1,4-oxazin-3-yl]-4-fluorophenyl}-5-chloropyridine-2-carboxamide], the values for the IC50 in data set [1] and in data set [2] were 0.00339 µM and 0.00331 µM, respectively.
